Values joined by “and” are separate entries in the source; they are usually repeats but may differ in a detail not shown here. Identical values can stand only once.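 Where inhibition never reached the appropriate level, the endpoint shown equals the highest concentration tested. Otherwise, values were interpolated linearly from a five-concentration, 48-hour dose response in 96-well plates. The concentration for 50% growth inhibition is given as GI50. TGI: concentration producing complete growth inhibition.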 Where a SMILES comes first, the peptide text is derived from it. Bridges are numbered along the chain shown (N, C = ends). [ ]: non-standard residue; d: D form. The star is where a group is joined. ξ: configuration not given here. ξNMePhe(4-NMe2) = CNC(Cc1ccc(N(C)C)cc1)C(=O)O; Picolinoyl(3-OH) = O=C(c1ncccc1O)*; ξPip(4-oxo) = O=C1CCNC(C(=O)O)C1; Phg = N[CH](C(=O)O)c1ccccc1; Abu = CC[CH](N)C(=O)O
Assays:
Assay in all cases: inhibition of tumour cell growth, NCI panel, 48 h
786-0 renal = tested on: 786-0 renal
A498 renal = tested on: A498 renal
CCRF-CEM leukemia = tested on: CCRF-CEM leukemia
HL-60(TB) leukemia = tested on: HL-60(TB) leukemia
HT29 colon = tested on: HT29 colon
M14 melanoma = tested on: M14 melanoma
MCF7 breast = tested on: MCF7 breast
NCI-H460 lung = tested on: NCI-H460 lung
PC-3 prostate = tested on: PC-3 prostate
SF-268 CNS = tested on: SF-268 CNS
SK-OV-3 ovarian = tested on: SK-OV-3 ovarian
SNB-19 CNS = tested on: SNB-19 CNS
SW-620 colon = tested on: SW-620 colon
T-47D breast = tested on: T-47D breast
U251 CNS = tested on: U251 CNS
A549 NSCLC = tested on: A549 NSCLC
ACHN renal = tested on: ACHN renal
BT-549 breast = tested on: BT-549 breast
CAKI-1 renal = tested on: CAKI-1 renal
COLO 205 colon = tested on: COLO 205 colon
DU-145 prostate = tested on: DU-145 prostate
EKVX NSCLC = tested on: EKVX NSCLC
HCC-2998 colon = tested on: HCC-2998 colon
HCT-15 colon = tested on: HCT-15 colon
HOP-62 NSCLC = tested on: HOP-62 NSCLC
HOP-92 NSCLC = tested on: HOP-92 NSCLC
IGROV1 ovarian = tested on: IGROV1 ovarian
K-562 leukemia = tested on: K-562 leukemia
KM12 colon = tested on: KM12 colon
LOX IMVI melanoma = tested on: LOX IMVI melanoma
MALME-3M melanoma = tested on: MALME-3M melanoma
MDA-MB-231 breast = tested on: MDA-MB-231 breast
MOLT-4 leukemia = tested on: MOLT-4 leukemia
NCI-H226 lung = tested on: NCI-H226 lung
NCI-H23 lung = tested on: NCI-H23 lung
NCI-H522 lung = tested on: NCI-H522 lung
NCI/ADR-RES ovarian = tested on: NCI/ADR-RES ovarian
OVCAR-3 ovarian = tested on: OVCAR-3 ovarian
OVCAR-4 ovarian = tested on: OVCAR-4 ovarian
OVCAR-5 ovarian = tested on: OVCAR-5 ovarian
OVCAR-8 ovarian = tested on: OVCAR-8 ovarian
RPMI-8226 leukemia = tested on: RPMI-8226 leukemia
SF-295 CNS = tested on: SF-295 CNS
SF-539 CNS = tested on: SF-539 CNS
SK-MEL-2 melanoma = tested on: SK-MEL-2 melanoma
SK-MEL-28 melanoma = tested on: SK-MEL-28 melanoma
SK-MEL-5 melanoma = tested on: SK-MEL-5 melanoma
SN12C renal = tested on: SN12C renal
TK-10 renal = tested on: TK-10 renal
UACC-257 melanoma = tested on: UACC-257 melanoma
UACC-62 melanoma = tested on: UACC-62 melanoma
UO-31 renal = tested on: UO-31 renal
SR leukemia = tested on: SR leukemia
HCT-116 colon = tested on: HCT-116 colon
HS 578T breast = tested on: HS 578T breast
MDA-MB-435 = tested on: MDA-MB-435
RXF 393 renal = tested on: RXF 393 renal
SNB-75 CNS = tested on: SNB-75 CNS

## Nc1ncnc2c(C3OC(CO)C(O)C3O)nsc12 (stereo not drawn)
786-0 renal
  TGI: > 100 µM
A498 renal
  TGI: 1.41 µM
CCRF-CEM leukemia
  TGI: 16.5 µM and > 100 µM
HL-60(TB) leukemia
  GI50: 1.52 µM
  TGI: 7.5 µM
HT29 colon
  TGI: > 100 µM
M14 melanoma
  TGI: > 75 µM
MCF7 breast
  TGI: > 100 µM
NCI-H460 lung
  TGI: > 100 µM
PC-3 prostate
  GI50: 4.6 µM
SF-268 CNS
  TGI: > 100 µM
SK-OV-3 ovarian
  GI50: 3.25 µM
  TGI: 20.3 µM
SNB-19 CNS
  TGI: > 100 µM
SW-620 colon
  TGI: > 100 µM
T-47D breast
  GI50: < 0.0162 µM
  TGI: > 48.6 µM
U251 CNS
  TGI: > 100 µM

## COc1cc(C2c3cc4c(cc3OC(NCc3ccccc3)C2C)OCO4)cc(OC)c1OC (stereo not drawn)
786-0 renal
  TGI: 44.1 µM
A498 renal
  TGI: > 100 µM
A549 NSCLC
  TGI: > 94 µM
ACHN renal
  TGI: > 39.8 µM
BT-549 breast
  TGI: 16.4 µM
CAKI-1 renal
  TGI: 0.982 µM
CCRF-CEM leukemia
  TGI: 26.5 µM
COLO 205 colon
  TGI: 0.726 µM
DU-145 prostate
  TGI: > 100 µM
EKVX NSCLC
  TGI: > 100 µM
HCC-2998 colon
  TGI: 4 µM
HCT-15 colon
  TGI: > 44.4 µM
HL-60(TB) leukemia
  TGI: 0.699 µM
HOP-62 NSCLC
  TGI: > 64 µM
HOP-92 NSCLC
  TGI: 20.3 µM
HT29 colon
  TGI: 3.32 µM
IGROV1 ovarian
  TGI: > 36.5 µM
K-562 leukemia
  TGI: > 37.8 µM
KM12 colon
  TGI: 5.69 µM
LOX IMVI melanoma
  TGI: 17.2 µM
M14 melanoma
  TGI: 67.1 µM
MALME-3M melanoma
  TGI: 0.671 µM
MCF7 breast
  TGI: 48.7 µM
MDA-MB-231 breast
  TGI: 2.06 µM
MOLT-4 leukemia
  TGI: 31.8 µM
NCI-H226 lung
  TGI: 7.33 µM
NCI-H23 lung
  TGI: > 48.2 µM
NCI-H460 lung
  TGI: > 34.7 µM
NCI-H522 lung
  TGI: 4.02 µM
NCI/ADR-RES ovarian
  TGI: 0.723 µM
OVCAR-3 ovarian
  TGI: 3.1 µM
OVCAR-4 ovarian
  TGI: > 100 µM
OVCAR-5 ovarian
  TGI: > 100 µM
OVCAR-8 ovarian
  TGI: > 100 µM
RPMI-8226 leukemia
  TGI: 24.2 µM
SF-268 CNS
  TGI: > 36.8 µM
SF-295 CNS
  TGI: 0.673 µM
SF-539 CNS
  TGI: 0.817 µM
SK-MEL-2 melanoma
  TGI: > 66.6 µM
SK-MEL-28 melanoma
  TGI: > 100 µM
SK-MEL-5 melanoma
  TGI: 1.78 µM
SK-OV-3 ovarian
  TGI: > 35.3 µM
SN12C renal
  TGI: > 52.1 µM
SNB-19 CNS
  TGI: > 100 µM
SW-620 colon
  TGI: > 36 µM
TK-10 renal
  TGI: > 100 µM
U251 CNS
  TGI: 21.2 µM
UACC-257 melanoma
  TGI: > 100 µM
UACC-62 melanoma
  TGI: 14.1 µM
UO-31 renal
  TGI: 26.4 µM

## CCC1NC(=O)C(NC(=O)c2ncccc2O)C(C)OC(=O)C(c2ccccc2)NC(=O)C2CC(=O)CCN2C(=O)C(Cc2ccc(N(C)C)cc2)N(C)C(=O)C2CCCN2C1=O (stereo not drawn) (tested in a mixture with another compound) ({Picolinoyl(3-OH)}-T[Abu]P[ξNMePhe(4-NMe2)][ξPip(4-oxo)][Phg]; ester 1-C; configuration not given here)
BT-549 breast
  TGI: 53.2 µM
HOP-92 NSCLC
  TGI: 25.5 µM
NCI-H226 lung
  TGI: 42.1 µM
NCI-H23 lung
  TGI: 34.5 µM
UACC-257 melanoma
  TGI: 22.3 µM

## C=C(CNCCc1ccc(O)cc1)[C@@H]1CC[C@]2(COC3CCCCO3)CC[C@]3(C)[C@H](CC[C@@H]4[C@@]5(C)CCC(N)C(C)(C)[C@@H]5CC[C@]43C)[C@@H]12 (stereo partly drawn)
K-562 leukemia
  GI50: 0.305 µM
  TGI: > 100 µM
SR leukemia
  GI50: 0.289 µM
  TGI: > 100 µM
U251 CNS
  GI50: 0.306 µM
  TGI: > 100 µM

## C=CC(=O)Nc1cccc(C)c1Nc1ncc2cc(-c3c(Cl)c(OC)cc(OC)c3Cl)ccc2n1
786-0 renal
  GI50: 2.33 µM
  TGI: 10.1 µM
A549 NSCLC
  GI50: 7.27 µM
  TGI: 97.4 µM
ACHN renal
  GI50: 7.01 µM
  TGI: > 100 µM
BT-549 breast
  GI50: 1.64 µM
  TGI: 9.34 µM
CAKI-1 renal
  GI50: 8.39 µM
  TGI: > 100 µM
CCRF-CEM leukemia
  GI50: 4.44 µM
  TGI: > 100 µM
COLO 205 colon
  GI50: 4.17 µM
  TGI: 36.7 µM
DU-145 prostate
  GI50: 3.63 µM
  TGI: > 100 µM
EKVX NSCLC
  GI50: 6.85 µM
  TGI: 52.9 µM
HCC-2998 colon
  GI50: 12.4 µM
  TGI: 31.9 µM
HCT-116 colon
  GI50: 6.36 µM
  TGI: 24.9 µM
HCT-15 colon
  GI50: 4.21 µM
  TGI: > 100 µM
HL-60(TB) leukemia
  GI50: 2.13 µM
  TGI: 15 µM
HOP-62 NSCLC
  GI50: 8.86 µM
  TGI: 50 µM
HOP-92 NSCLC
  GI50: 6.99 µM
  TGI: 36.8 µM
HS 578T breast
  GI50: 13.8 µM
  TGI: > 100 µM
HT29 colon
  GI50: 6.31 µM
  TGI: 67.7 µM
IGROV1 ovarian
  GI50: 8.18 µM
  TGI: 26 µM
K-562 leukemia
  GI50: 3.89 µM
  TGI: > 100 µM
KM12 colon
  GI50: 4.11 µM
  TGI: 24.8 µM
LOX IMVI melanoma
  GI50: 2.33 µM
  TGI: 14.1 µM
M14 melanoma
  GI50: 7.44 µM
  TGI: 57.2 µM
MALME-3M melanoma
  GI50: 3.98 µM
  TGI: 31.4 µM
MCF7 breast
  GI50: 1.97 µM
  TGI: > 100 µM
MDA-MB-231 breast
  GI50: 4.02 µM
  TGI: 46.4 µM
MDA-MB-435
  GI50: 4.14 µM
  TGI: 17.4 µM
MOLT-4 leukemia
  GI50: 1.76 µM
  TGI: 7.61 µM
NCI-H226 lung
  GI50: 3.18 µM
  TGI: 18.1 µM
NCI-H23 lung
  GI50: 9.31 µM
  TGI: 34.2 µM
NCI-H460 lung
  GI50: 1.64 µM
  TGI: 11.5 µM
NCI-H522 lung
  GI50: 10.2 µM
  TGI: 26.9 µM
NCI/ADR-RES ovarian
  GI50: 4.07 µM
  TGI: 66.5 µM
OVCAR-3 ovarian
  GI50: 2.78 µM
  TGI: 13.1 µM
OVCAR-4 ovarian
  GI50: 3.47 µM
  TGI: > 100 µM
OVCAR-5 ovarian
  GI50: 17.9 µM
  TGI: > 100 µM
OVCAR-8 ovarian
  GI50: 4.83 µM
  TGI: 47 µM
PC-3 prostate
  GI50: 2.09 µM
  TGI: 23.3 µM
RPMI-8226 leukemia
  GI50: 1.44 µM
  TGI: 7.54 µM
RXF 393 renal
  GI50: 1.3 µM
  TGI: 4.59 µM
SF-268 CNS
  GI50: 3.69 µM
  TGI: 38.6 µM
SF-295 CNS
  GI50: 3.26 µM
  TGI: > 100 µM
SF-539 CNS
  GI50: 1.38 µM
  TGI: 10.8 µM
SK-MEL-2 melanoma
  GI50: 4.26 µM
  TGI: 28.7 µM
SK-MEL-28 melanoma
  GI50: 12.7 µM
  TGI: 55.6 µM
SK-MEL-5 melanoma
  GI50: 2.61 µM
  TGI: 9.63 µM
SK-OV-3 ovarian
  GI50: 18.3 µM
  TGI: 82.6 µM
SN12C renal
  GI50: 5.87 µM
  TGI: > 100 µM
SNB-19 CNS
  GI50: 4.14 µM
  TGI: 47.1 µM
SNB-75 CNS
  GI50: 2.57 µM
  TGI: 44.9 µM
SR leukemia
  GI50: 2.75 µM
  TGI: > 100 µM
SW-620 colon
  GI50: 3.9 µM
  TGI: 39.5 µM
T-47D breast
  GI50: 1.64 µM
  TGI: > 100 µM
TK-10 renal
  GI50: 3.25 µM
  TGI: 22.1 µM
U251 CNS
  GI50: 2.3 µM
  TGI: 16.5 µM
UACC-257 melanoma
  GI50: 3.43 µM
  TGI: 68.3 µM
UACC-62 melanoma
  GI50: 7.96 µM
  TGI: 42.9 µM
UO-31 renal
  GI50: 3.66 µM
  TGI: 61.5 µM
